Biological target: T1, human kinase Mps-1 (Homo sapiens, UniProt P33981)
T1 construct: N-terminally GST-tagged human full length recombinant Mps-1 kinase; GST (N); purchased Invitrogen, Karslruhe, Germany PV4071
T1 sequence (P33981 1-857): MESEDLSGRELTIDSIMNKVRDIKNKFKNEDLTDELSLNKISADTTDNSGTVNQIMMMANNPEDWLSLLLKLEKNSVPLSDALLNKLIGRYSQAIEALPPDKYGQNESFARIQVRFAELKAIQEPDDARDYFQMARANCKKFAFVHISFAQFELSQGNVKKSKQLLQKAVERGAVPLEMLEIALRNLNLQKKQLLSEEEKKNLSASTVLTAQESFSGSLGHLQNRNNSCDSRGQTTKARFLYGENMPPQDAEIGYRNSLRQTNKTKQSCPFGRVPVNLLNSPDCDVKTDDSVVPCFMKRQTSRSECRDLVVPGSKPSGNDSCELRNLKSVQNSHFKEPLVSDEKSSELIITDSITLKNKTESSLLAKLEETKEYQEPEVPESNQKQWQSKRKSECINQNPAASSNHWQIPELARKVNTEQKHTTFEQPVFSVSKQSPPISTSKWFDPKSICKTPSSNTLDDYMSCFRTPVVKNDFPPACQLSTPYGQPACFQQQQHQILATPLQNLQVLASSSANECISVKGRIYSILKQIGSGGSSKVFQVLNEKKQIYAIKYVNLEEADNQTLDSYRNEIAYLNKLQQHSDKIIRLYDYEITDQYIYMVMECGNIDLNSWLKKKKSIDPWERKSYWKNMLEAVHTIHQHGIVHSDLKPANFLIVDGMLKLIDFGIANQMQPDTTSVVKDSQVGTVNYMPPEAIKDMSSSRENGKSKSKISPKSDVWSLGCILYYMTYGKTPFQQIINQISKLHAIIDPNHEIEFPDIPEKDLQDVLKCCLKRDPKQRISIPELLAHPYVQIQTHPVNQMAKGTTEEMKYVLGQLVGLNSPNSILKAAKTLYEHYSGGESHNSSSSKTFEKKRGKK
Assay: Mps-1 kinase assay (TR-FRET)
Format: biochemical
Settings: N-terminally GST-tagged human full length recombinant Mps-1; 10 μM ATP; 1 μM peptide substrate; 60 min at 22° C.
In short: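 Read-out: TR-FRET from Europium-labelled anti-phospho(Ser/Thr) antibody to SA-XLent after 1 h detection incubation at 22° C. Inhibition of kinase activity measured.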

In order of rising IC50:
1. Cc1cc(-c2cc(NCCC(F)(F)F)c3ncc(-c4ccc(C(=O)NC5CC5)c(C)c4)n3c2)ccc1C(N)=O [Example 153, 4-{6-(4-carbamoyl-3-methylphenyl)-8-[(3,3,3-trifluoropropyl)amino]imidazo[1,2-a]pyridin-3-yl}-N-cyclopropyl-2-methylbenzamide]  0.5 nM
2. Cc1cc(-c2cnc3c(NCCC(F)(F)F)cc(-c4ccc(C(=O)N[C@H]5C[C@@H]5F)c(C)c4)cn23)ccc1C(=O)NC1CC1 (relative stereo) [Example 152, 4-{3-[4-(cyclopropylcarbamoyl)-3-methylphenyl]-8-[(3,3,3-trifluoropropyl)amino]imidazo[1,2-a]pyridin-6-yl}-N-[rel-(1S,2S)-2-fluorocyclopropyl]-2-methylbenzamide]  0.8 nM
3. Cc1cc(-c2cnc3c(NCCC(F)(F)F)cc(Sc4cccc(F)c4)cn23)ccc1C(=O)NC1CC1 [Example 3-5]  0.8 nM
4. CNC(=O)c1ccc(-c2cnc3c(NCCC(F)(F)F)cc(Oc4ccc(O)c(F)c4)cn23)cc1C [Example 130, 4-{6-(3-Fluoro-4-hydroxyphenoxy)-8-[(3,3,3-trifluoropropyl)amino]imidazo[1,2-a]pyridin-3-yl}-N,2-dimethylbenzamide]  0.9 nM
5. Cc1cc(-c2cnc3c(NCCC(F)(F)F)cc(Oc4cccc(F)c4)cn23)ccc1C(=O)N[C@H]1C[C@@H]1F (relative stereo) [Example 12 (rac.-A), N-[rel-(1S,2S)-2-fluorocyclopropyl]-4-{6-(3-fluorophenoxy)-8-[(3,3,3-trifluoropropyl)amino]imidazo[1,2-a]pyridin-3-yl}-2-methylbenzamide]  1.1 nM
6. Cc1cc(-c2cnc3c(NCC(F)F)cc(Oc4cccc(F)c4F)cn23)ccc1C(=O)NC1CC1 [Example 163, N-cyclopropyl-4-{8-[(2,2-difluoroethyl)amino]-6-(2,3-difluorophenoxy)imidazo[1,2-a]pyridin-3-yl}-2-methylbenzamide]  1.3 nM
7. Cc1cc(-c2cnc3c(NCCC(F)(F)F)cc(Oc4cccc(F)c4F)cn23)ccc1C(=O)NC1(C)CC1 [Example 71, 4-{6-(2,3-Difluorophenoxy)-8-[(3,3,3-trifluoropropyl)amino]imidazo[1,2-a]pyridin-3-yl}-2-methyl-N-(1-methylcyclopropyl)benzamide]  1.8 nM
8. COc1ccc(Oc2cc(NCCC(F)(F)F)c3ncc(-c4ccc(C(=O)N[C@H]5C[C@@H]5C)c(C)c4)n3c2)cc1F (relative stereo) [Example 125, 4-{6-(3-fluoro-4-methoxyphenoxy)-8-[(3,3,3-trifluoropropyl)amino]imidazo[1,2-a]pyridin-3-yl}-2-methyl-N-[rel-(1S,2S)-2-methylcyclopropyl]benzamide]  2 nM
9. Cc1cc(-c2cnc3c(NCC(F)F)cc(Oc4cccc(F)c4)cn23)ccc1C(=O)NC1CC1 [Example 161, N-cyclopropyl-4-{8-[(2,2-difluoroethyl)amino]-6-(3-fluorophenoxy)imidazo[1,2-a]pyridin-3-yl}-2-methylbenzamide]  2.3 nM
10. Cc1cc(-c2cnc3c(NCCC(F)(F)F)cc(Oc4cccc(Cl)c4)cn23)ccc1C(=O)NC1CC1F (single isomer, unassigned) [Example 39 (A or ent.-A), 4-{6-(3-chlorophenoxy)-8-[(3,3,3-trifluoropropyl)amino]imidazo[1,2-a]pyridin-3-yl}-N-{[(1S,2S) or (1R,2R)]-2-fluorocyclopropyl}-2-methylbenzamide]  2.9 nM
11. COc1c(F)cccc1Oc1cc(NCCC(F)(F)F)c2ncc(-c3ccc(C(=O)NC4CC4)c(C)c3)n2c1 [Example 146, N-cyclopropyl-4-{6-(3-fluoro-2-methoxyphenoxy)-8-[(3,3,3-trifluoropropyl)amino]imidazo[1,2-a]pyridin-3-yl}-2-methylbenzamide]  3.2 nM
12. Cc1cc(-c2cnc3c(NCCC(F)(F)F)cc(Oc4cccc(F)c4F)cn23)ccc1C(=O)NC1(C#N)CC1 [Example 70, N-(1-cyanocyclopropyl)-4-{6-(2,3-difluorophenoxy)-8-[(3,3,3-trifluoropropyl)amino]imidazo[1,2-a]pyridin-3-yl}-2-methylbenzamide]  3.8 nM
13. Cc1cc(-c2cnc3c(NCCC(F)(F)F)cc(Oc4cccc(Cl)c4)cn23)ccc1C(=O)NC1CC1F (single isomer, unassigned) [Example 39 (ent.-A or A), 4-{6-(3-chlorophenoxy)-8-[(3,3,3-trifluoropropyl)amino]imidazo[1,2-a]pyridin-3-yl}-N-{[1R,2R) or (1S,2S)]-2-fluorocyclopropyl}-2-methylbenzamide]  4.9 nM
14. COCCNc1cc(Oc2cccc(F)c2F)cn2c(-c3ccc(C(=O)NC4CC4)c(C)c3)cnc12 [Example 173, N-cyclopropyl-4-{6-(2,3-difluorophenoxy)-8-[(2-methoxyethyl)amino]imidazo[1,2-a]pyridin-3-yl}-2-methylbenzamide]  8.2 nM
15. Cc1cc(-c2cnc3c(NCCC(F)(F)F)cc(Oc4ccc(OC(F)(F)F)cc4)cn23)ccc1C(=O)NC1CC1 [Example 64, N-cyclopropyl-2-methyl-4-{6-[4-(trifluoromethoxy)phenoxy]-8-[(3,3,3-trifluoropropyl)amino]imidazo[1,2-a]pyridin-3-yl}benzamide]  8.6 nM
16. Cc1cc(-c2cnc3c(NCCC(F)(F)F)cc(Oc4cccc(F)c4)cn23)ccc1C(=O)NC1CCC1 [Example 24, N-cyclobutyl-4-{6-(3-fluorophenoxy)-8-[(3,3,3-trifluoropropyl)amino]imidazo[1,2-a]pyridin-3-yl}-2-methylbenzamide]  11.1 nM
17. Cc1ccc(F)cc1Oc1cc(NCC(F)F)c2ncc(-c3ccc(C(=O)NC4CC4)c(C)c3)n2c1 [Example 164, N-cyclopropyl-4-{8-[(2,2-difluoroethyl)amino]-6-(5-fluoro-2-methylphenoxy)imidazo[1,2-a]pyridin-3-yl}-2-methylbenzamide]  13.8 nM
18. CNC(=O)c1ccc(-c2cnc3c(NCCC(F)(F)F)cc(-c4ccc(C(=O)NC5(C)CC5)c(C)c4)cn23)cc1C [Example 157, 2-methyl-N-(1-methylcyclopropyl)-4-{3-[3-methyl-4-(methylcarbamoyl)phenyl]-8-[(3,3,3-trifluoropropyl)amino]imidazo[1,2-a]pyridin-6-yl}benzamide]  15.3 nM
19. Cc1cc(-c2cnc3c(NCCC(F)(F)F)cc(C(C)O)cn23)ccc1C(=O)NC1CC1 (racemic) [Example 143, N-cyclopropyl-4-{6-[(1RS)-1-hydroxyethyl]-8-[(3,3,3-trifluoropropyl)amino]imidazo[1,2-a]pyridin-3-yl}-2-methylbenzamide]  33.2 nM
20. C=Cc1cc(NCCC(F)(F)F)c2ncc(-c3ccc(C(=O)N[C@H]4C[C@@H]4F)c(C)c3)n2c1 (relative stereo) [Example 97, N-[rel-(1S,2S)-2-fluorocyclopropyl]-2-methyl-4-{8-[(3,3,3-trifluoropropyl)amino]-6-vinylimidazo[1,2-a]pyridin-3-yl}benzamide]  47.4 nM
21. Cc1ccc(F)cc1Oc1cc(NCCC(F)(F)F)c2ncc(-c3ccc(C(=O)NC4(C5CC5)CC4)c(C)c3)n2c1 [Example 62, N-[1′,1′-bi(cyclopropyl)-1-yl]-4-{6-(5-fluoro-2-methylphenoxy)-8-[(3,3,3-trifluoropropyl)amino]imidazo[1,2-a]pyridin-3-yl}-2-methylbenzamide]  49.3 nM
22. Cc1cc(-c2cnc3c(NCCC(F)(F)F)cc(C#CCO)cn23)ccc1C(=O)NC1(C)CC1 [Example 22, 4-{6-(3-hydroxyprop-1-yn-1-yl)-8-[(3,3,3-trifluoropropyl)amino]imidazo[1,2-a]pyridin-3-yl}-2-methyl-N-(1-methylcyclopropyl)benzamide]  50 nM
23. COCCNc1cc(Oc2cc(F)ccc2C)cn2c(-c3ccc(C(=O)NC4CC4)c(C)c3)cnc12 [Example 172]  77.8 nM
24. C#Cc1cc(NCCC(F)(F)F)c2ncc(-c3ccc(C(=O)NC4(C)CC4)c(C)c3)n2c1 [Example 17, 4-{6-ethynyl-8-[(3,3,3-trifluoropropyl)amino]imidazo[1,2-a]pyridin-3-yl}-2-methyl-N-(1-methylcyclopropyl)benzamide]  108 nM
25. CCNC(=O)c1ccc(-c2cnc3c(NCCC(F)(F)F)cc(Oc4ccc(OC(F)(F)F)cc4)cn23)cc1C [Example 68, N-ethyl-2-methyl-4-{6-[4-(trifluoromethoxy)phenoxy]-8-[(3,3,3-trifluoropropyl)amino]imidazo[1,2-a]pyridin-3-yl}benzamide]  124 nM
26. tert-butyl {3-[4-(cyclopropylcarbamoyl)-3-methylphenyl]-6-(2-hydroxybenzoyl)imidazo[1,2-a]pyridin-8-yl}(2,2-difluoroethyl)carbamate [Example 168]  279 nM

Reference: US20140255392A1 (BAYER INTELLECTUAL PROPERTY GMBH, priority 2011, published 2014)
